Test results as given in patent US6043045A, “Screening methods for the identification of novel antibiotics” (The Scripps Research Institute, priority 1998, dated 2000).
“Also recorded” adds a separate entry of the source. Read-outs that look alike come from different tables or passages of the source.

Tests used:
KinA~P = target: T1, KinA~P (Bacillus subtilis, UniProt P16497); test: Dephosphorylation of preformed KinA~P; type: biochemical; conditions: oleic acid 2.5×10^-4M, no SpoOF
T1 construct: made in house
Method: Next, the ability of oleic acid to enhance the dephosphorylation of preformed KinA~P was investigated. Autophosphorylation of in the presence of [γ^32 P]ATP was allowed to proceed for 60 minutes in the absence of SpoOF. At the end of this incubation, the reaction was divided into two aliquots, one receiving oleic acid to a final concentration of 2.5×10^-4M. Samples from each were withdrawn at timed intervals, fractionated on polyacrylamide gels, the KinA bands excised and the incorporated radioactivity determined.

KinA [1] = target: T2, KinA (Bacillus subtilis, UniProt P16497); test: biochemical; type: biochemical; conditions: for IC50: Table 4, I0.5 at 4×10^-8 M KinA, 32P incorporation into SpoOF; for inhibition of KinA phosphorylation of SpoOF (in words): tested at 0.08% final concentration
T2 construct: made in house
T2 sequence (P16497 1-606): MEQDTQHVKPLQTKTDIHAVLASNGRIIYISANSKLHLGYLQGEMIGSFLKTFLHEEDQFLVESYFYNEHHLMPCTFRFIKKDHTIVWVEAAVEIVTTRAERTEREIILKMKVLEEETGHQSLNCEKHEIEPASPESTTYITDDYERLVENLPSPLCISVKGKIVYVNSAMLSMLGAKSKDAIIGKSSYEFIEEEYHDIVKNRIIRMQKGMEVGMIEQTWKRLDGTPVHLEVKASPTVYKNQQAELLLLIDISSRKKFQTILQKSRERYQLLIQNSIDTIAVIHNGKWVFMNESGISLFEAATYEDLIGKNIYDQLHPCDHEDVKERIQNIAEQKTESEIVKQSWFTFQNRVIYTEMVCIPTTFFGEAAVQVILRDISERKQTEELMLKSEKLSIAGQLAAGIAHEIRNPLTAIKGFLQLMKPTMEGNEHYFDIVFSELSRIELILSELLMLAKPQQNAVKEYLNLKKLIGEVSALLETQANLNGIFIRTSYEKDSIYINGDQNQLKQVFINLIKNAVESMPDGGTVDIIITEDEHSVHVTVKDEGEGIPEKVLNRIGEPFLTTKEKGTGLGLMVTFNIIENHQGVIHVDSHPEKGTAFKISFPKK
Method: The reactions were performed in a 25 μl final volume containing 100 mM Tris pH 8.0, 100 mM KCl, 2 mM MgCl2, 0.5 mM dithiothreitol, 10% (v/v) glycerol, 0.1 % (w/v) gelatin, 4% (v/v) ethanol, 200 μM total ATP containing approximately 1.5 μCi [gamma-^32 P]ATP (New England Nuclear, 6000 Ci/mMol, 150 μCi/ml), 300 μM SpoOF protein and 0.04 μM KinA protein (Perego, et al., J. Bacteriol. 171: 6187-6196 (1989)) unless otherwise indicated. Fatty acids were added to varying final concentration from solutions made with 100% ethanol (the 4% ethanol concentration in the reaction mixture reflects these addition, or in the case of controls, the addition of ethanol alone). The reactions were initiated by addition of the ATP and incubated for thirty minutes at room temperature.
When higher KinA concentrations were used, the time of incubation was adjusted accordingly. The reactions were stopped by adding an equal volume of loading dye (0.25 M Tris pH 6.8, 20% (v/v) glycerol, 1% sodium dodecyl sulfate (w/v), 140 mM β-mercaptoethanol, 0.05% (w/v) bromophenol blue) and aliquots were loaded onto polyacrylamide gels (5% stacking, 15% separating, using the buffer system of Laemmi, Id., 1970).
The gels were run for approximately 16 hours at 10 mA constant current. The gels were covered with plastic wrap and subjected to autoradiography using Kodak XOmat RP1 film. Quantitation of activity was accomplished by cutting gels slices containing the appropriate phosphoprotein (usually SpoOF~P, see Section E below) and counting the Cerenkov radiation in a Beckman LF7500 scintillation counter (Beckman Instruments, Fullerton, Calif.). Equal-sized slices from blank areas of the gels were also counted and used to adjust for background. Percentage of activity was calculated using the value of the control reaction as 100%.
To quantify our initial assessment of inhibitory properties, the I0.5 values (at 4×10^-8 M KinA) were determined for each of the fatty acids. […] For example, the percent activity at an indicated oleic acid concentration is the ratio (×100) of the incorporation of ^32 P (from [γ^32 P]ATP) into the SpoOF protein relative to the incorporation in the control reaction containing no inhibitor. Typically, data are gathered from at least two different experiments. The I0.5 value is the concentration--e.g., the oleic acid concentration--corresponding to 50% activity as determined from the relevant graph.

KinA [2] = target: T2, KinA; test: KinA autophosphorylation assay at higher KinA concentration and ATP competition series; type: biochemical
Method: (§1) The above-noted experiments were performed using a KinA concentration of […]. At this concentration, a band corresponding to KinA~P was not visible on the autoradiographs. Therefore, it could not be determined if the inhibition occurred at the KinA autophosphorylation step or at the phosphotransferase reaction between KinA~P and SpoOF. To address this question, assays were performed using a higher KinA concentration (1×10^-6 M). The prevention of stable autophosphorylation of KinA by oleic acid was confirmed. Data was gathered which verified the incorporation of ^32 P from [γ^32 P]ATP into the KinA protein in the presence of SpoOF and differing concentrations of oleic acid (not shown). The assay was performed as disclosed hereinabove, except that the KinA concentration was increased to 1×10^-6 M and the incubation time was shortened to three minutes.
(§2) To determine the nature of the fatty acid inhibition of autophosphorylation, three series of reactions were performed. In the first series, no oleic acid was present; the second contained 2.5×10^-5 M oleic acid; the third contained 7.0×10^-5 M oleic acid. […] Even at the lowest oleic acid concentration (2.5×10^-5 M) and highest ATP level (2×10^-3 M), the KinA was greater than 95% inhibited.

KinA [3] = target: T2, KinA; test: Test whether fatty acids serve as substrate for KinA-catalyzed phosphorylation (heptane partition); type: biochemical; conditions: KinA 2 μM, no SpoOF, radioactivity in organic phase
Method: To determine if fatty acids served as a substrate for KinA-catalyzed phosphorylation, the following method was used. The above reaction conditions were employed except that no SpoOF was present; the KinA was at 2 μM and the reactions incubated for 5 minutes prior to the addition of fatty acids. After this initial incubation, to allow autophosphorylation to occur, 48 μl aliquots were added to tubes containing (a) two μl ethanol; (b) 2 μl of 2% oleic acid; and (c) 2 μl of 2% palmitic acid. The reactions were allowed to incubate 10 minutes after which time 0.5 ml H2 O and 0.5 ml heptane were added to each. After 10 minutes at room temperature, the phases were separated by centrifugation. The aqueous phases were washed with H2 O-saturated heptane and the heptane phases washed with heptane-saturated H2 O. The Cerenkov radiation in each phase and wash was determined.
Oleic acid was added to a reaction mixture containing KinA~[^32 P], and after a suitable incubation, the mixture was separated into organic and aqueous phases (as described above). Under the conditions used, fatty acid species would partition into the organic phase leaving the KinA~P and unincorporated [γ^32 P]ATP in the aqueous phase. The amount of radioactivity in the organic phase containing oleic acid was negligible and no different from the amount present in the control reactions (data not shown).

[4] = substrate: Nc1ncnc2c1ncn2[C@@H]1O[C@H](COP(=O)(O)OP(=O)(O)OP(=O)(O)O)[C@@H](O)[C@H]1O; test: Phosphorylation of His-SpoOF immobilized on Ni-resin by KinA (high throughput assay); type: biochemical, Bacillus subtilis; conditions: 1 μM KinA, 22° C., 20 min
Method: Phosphorylation of immobilized His-SpoOF was carried out using the MultiScreen 96-well filtration plate (0.65 μm, type DVPP) from Millipore (Bedford, Mass.). The removal of liquid from the wells of the filtration plate was done with the vacuum manifold from Millipore. The His-SpoOF resin (25%, v/v) was placed into individual wells of the filtration plate and washed twice with 200 μl buffer A. A total volume of 80 μl of buffer A containing the indicated amounts of KinA, ATP, and [γ-^32 P]ATP was added to the wells.
The plate was then incubated for the indicated period of time at 22° C. with gentle shaking. The reaction was terminated by removal of the reaction mixture from the wells followed by three washes of the resin with buffer A.
The resin was then washed three times with buffer A containing 30 mM imidazole with 5 min. incubation/shaking and another three times with buffer A only. […]
For analysis by scintillation counting, 80 μl of 0.2 N HCl was added to each of the wells and the plate was incubated at 55° C. with gentle shaking for 1 hour. […] To each of the wells of the MicroFluor plate, 150 μl of MicroScint-40 (Packard, Meriden, Conn.) was added and the radioactivity was counted using the TopCount from Packard. […]

[5] = substrate: Nc1ncnc2c1ncn2[C@@H]1O[C@H](COP(=O)(O)OP(=O)(O)OP(=O)(O)O)[C@@H](O)[C@H]1O; test: KinA autophosphorylation assay at higher KinA concentration and ATP competition series; type: biochemical, Bacillus subtilis; conditions: other: KinA
Method: as §1, §2

## CCCCCCCC/C=C\CCCCCCCC(=O)O [cis-9-octadecanoic]
KinA~P
  loss of 32P from preformed KinA~P versus reaction without oleic acid: no significant difference
KinA [1]
  inhibitory effect on KinA in vitro (in words): potent inhibitors
  inhibition of KinA phosphorylation of SpoOF (in words): essentially complete inhibition
KinA [1]; read-out: Fatty Acid Inhibitors of KinA Activity (category by I0.5)
  IC50: < 70 µM
KinA [2]; 2.5×10^-5 M oleic acid, highest ATP level 2×10^-3 M
  inhibition of KinA: greater than 95%
KinA [2]; ATP 2×10^-5 to 2×10^-3 M, oleic acid 2.5×10^-5 and 7.0×10^-5 M
  competition of inhibition with ATP: ATP is not competitive with oleic acid inhibition
KinA [2]; KinA 1×10^-6 M
  phosphotransfer from KinA~P to SpoOF: can also inhibit the phosphotransfer from KinA~P to SpoOF
KinA [2]; KinA 1×10^-6 M, 3 min, differing oleic acid concentrations
  formation of KinA~P and SpoOF~P: inhibits the formation of KinA~P and SpoOF~P in a concentration-dependent fashion; also recorded: acts to inhibit the autophosphorylation of KinA
KinA [3]
  substrate for KinA catalyzed phosphorylation: did not serve as a substrate

## CCCCCC/C=C/CCCCCCCCCC(=O)O [trans-11-octadecenoic]
KinA [1]; Fatty Acid Inhibitors of KinA Activity (category by I0.5)
  IC50: > 1000 µM
KinA [1]; listed as trans-vaccenic
  inhibitory effect on KinA in vitro (in words): little or no inhibitory effect; also recorded: not inhibitory

## L-α-glycerophosphatidylcholine
KinA [1]
  inhibition of KinA phosphorylation of SpoOF (in words): Only oleic acid and stearic acid were inhibitory

## L-α-phosphatidic acid
KinA [1]
  inhibition of KinA phosphorylation of SpoOF (in words): Only oleic acid and stearic acid were inhibitory

## L-α-phosphatidylcholine
KinA [1]
  inhibition of KinA phosphorylation of SpoOF (in words): Only oleic acid and stearic acid were inhibitory

B1: KinA (histidine protein kinase) (Bacillus subtilis subsp. subtilis str. 168) (protein)
chain: T2 sequence (P16497 1-606)
notes: made in house; host or cells: E. coli (printed "E. coil")
[4]; other: SDS-PAGE analysis
  Km: 72 µM
[4]; other: scintillation counting
  Km: 70 µM

B2: KinA (Bacillus subtilis subsp. subtilis str. 168) (protein)
chain: T2 sequence (P16497 1-606)
notes: made in house
[5]
  Km: 130 µM
